Reference: patent US20230141563A1, “METHODS AND COMPOSITIONS FOR ATTENUATING ANTI-VIRAL TRANSFER VECTOR IGM RESPONSES” (Selecta Biosciences, Inc., priority 2021, published 2023)

System: AAV IgG
Experiment: Serum AAV IgG (ELISA) in AAV-SEAP-injected mice
Type: in vivo, C57BL/6 female mice
Conditions: Example 12; SVP[Rapa] 100 μg; ibrutinib 500 μg
Experimental: At time indicated (days 5, 9, 12, 16, 21, 42, 47, 51, 55, 162,167,174, 195 and 210) mice were bled, serum separated from whole blood and stored at −20±5° C. until analysis. Then IgM antibodies to AAV was measured in ELISA: 96-well plates coated o/n with the AAV, washed and blocked on the following day, then diluted serum samples (1:40) added to the plate and incubated; plates washed, donkey anti-mouse IgM specific-HRP added and after another incubation and wash, the presence of IgM antibodies to AAV detected by adding TMB substrate and measuring at an absorbance of 450 nm with a reference wavelength of 570 nm (the intensity of the signal presented as top optical density, OD, is directly proportional to the quantity of IgM antibody in the sample).
Same serum samples from Example 3 were also tested for AAV IgG measured by ELISA along the same lines as IgM with the exception of goat anti-mouse IgG specific-HRP being used.

Structure (SMILES): C=CC(=O)N1CCC[C@@H](n2nc(-c3ccc(Oc4ccccc4)cc3)c3c(N)ncnc32)C1 [ibrutinib]
- animals AAV IgG-converting by d22: 10/10
